The values that follow come from ChEMBL document CHEMBL2021890, “A new class of prolylcarboxypeptidase inhibitors, part 1: discovery and evaluation” (Bioorg Med Chem Lett, 2012).

The target of data set [1] is T1, Lysosomal Pro-X carboxypeptidase (Mus musculus, UniProt Q7TMR0).
T1 sequence (Q7TMR0 whole entry): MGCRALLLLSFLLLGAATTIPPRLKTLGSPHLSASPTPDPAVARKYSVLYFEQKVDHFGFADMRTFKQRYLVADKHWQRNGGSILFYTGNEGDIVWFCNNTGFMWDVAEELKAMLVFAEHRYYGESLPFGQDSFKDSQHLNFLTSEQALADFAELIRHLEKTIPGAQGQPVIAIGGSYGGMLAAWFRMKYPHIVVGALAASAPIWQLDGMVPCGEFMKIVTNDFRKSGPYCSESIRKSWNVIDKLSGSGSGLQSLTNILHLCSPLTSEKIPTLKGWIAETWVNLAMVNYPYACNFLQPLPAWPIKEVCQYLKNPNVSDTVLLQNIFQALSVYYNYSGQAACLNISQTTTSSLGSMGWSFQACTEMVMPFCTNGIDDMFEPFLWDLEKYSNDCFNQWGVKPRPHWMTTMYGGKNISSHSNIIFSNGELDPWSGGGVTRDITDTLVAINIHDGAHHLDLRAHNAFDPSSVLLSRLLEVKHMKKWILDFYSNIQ
As to the kind of experiment: Inhibition of mouse PrCP.

Data set [2] can be described thus: Plasma protein binding in 10% human plasma assessed as percentage unbound. The data set is classed as ADME, cell-free.
Data set [3] can be described thus: Plasma protein binding in 10% mouse plasma assessed as percentage unbound. The data set is classed as ADME, cell-free.
Data set [4] can be described thus: Metabolic stability in human liver microsomes after 30 mins by LC/MS analysis. The data set is classed as ADME, Microsome. The note with it: read-out: Stability. In general terms: Microsomes from liver hold many membrane-bound enzymes, among them those of drug oxidation.
Data set [5] can be described thus: Metabolic stability in mouse liver microsomes after 30 mins by LC/MS analysis. The class given is ADME, Microsome. Conditions: read-out: Stability.
Data set [6] in a line: Clearance in mouse at 0.5 mg/kg, iv and 1 mg/kg, po. The data set is classed as ADME, organism-based. Conditions: in vivo.
Data set [7] is described as follows: Volume of distribution in mouse at 0.5 mg/kg, iv and 1 mg/kg, po. The class given is ADME, organism-based. Conditions: in vivo.
The nature of data set [8]: Half life in mouse at 0.5 mg/kg, iv and 1 mg/kg, po. The note with it: in vivo. The class given is ADME, organism-based.
The test system of data set [9] is Mus musculus. Put plainly: Dose normalized AUC in mouse at 1 mg/kg, po. The class given is ADME, organism-based. Also on record: dose 1 mg/kg, route oral. Conditions: in vivo.
Data set [10] can be described thus: Oral bioavailability in mouse at 1 mg/kg. The class given is ADME, organism-based. Conditions: in vivo.
Data set [11] has as its target Mus musculus. As to the kind of experiment: Ex-vivo inhibition of po dosed mouse PrCP in the absence of plasma by FRET analysis. The class given is functional, organism-based.
Data set [12] concerns the target Mus musculus. As to the kind of experiment: Ex-vivo inhibition of PrCP in heat inactivated 25% plasma of po dosed mouse by FRET analysis. The data set is classed as functional, organism-based.
Data set [13] deals with Mus musculus. Put plainly: Ex-vivo inhibition of PrCP in heat inactivated 100% plasma of po dosed mouse by FRET analysis. The class given is functional, organism-based.
Data set [14] can be described thus: Drug uptake in C57 mouse plasma at 100 mg/kg, po after 20 hrs by LC/MS analysis. Also on record: dose 100 mg/kg, route oral. The data set is classed as ADME, organism-based.
Data set [15] is described as follows: Drug uptake in C57 mouse plasma at 10 mg/kg, po after 20 hrs by LC/MS analysis. The class given is ADME, organism-based. On the set-up: dose 10 mg/kg, route oral.
Data set [16] is described as follows: Drug uptake in C57 mouse brain at 100 mg/kg, po after 20 hrs by LC/MS analysis. The class given is ADME, organism-based. Also on record: dose 100 mg/kg, route oral. Conditions: read-out: Drug uptake.
The nature of data set [17]: Drug uptake in C57 mouse brain at 10 mg/kg, po after 20 hrs by LC/MS analysis. The data set is classed as ADME, organism-based. Also on record: dose 10 mg/kg, route oral. Conditions: read-out: Drug uptake.
The nature of data set [18]: Ratio of drug level in brain to plasma in C57 mouse at 100 mg/kg, po after 20 hrs by LC/MS analysis. The class given is ADME, organism-based. Conditions: read-out: BPR. Also on record: dose 100 mg/kg, route oral.
A short description of data set [19]: Ratio of drug level in brain to plasma in C57 mouse at 10 mg/kg, po after 20 hrs by LC/MS analysis. The data set is classed as ADME, organism-based. Also on record: dose 10 mg/kg, route oral. The note with it: read-out: BPR.
The subject of data set [20] is Mus musculus. As to the kind of experiment: Ex-vivo inhibition of PrCP in heat inactivated 100% plasma of C57 mouse assessed as target engagement at 100 mg/kg, po after 20 hrs by FRET analysis. The data set is classed as functional.
The test system of data set [21] is Mus musculus. As to the kind of experiment: Ex-vivo inhibition of PrCP in heat inactivated 100% plasma of C57 mouse assessed as target engagement at 10 mg/kg, po after 20 hrs by FRET analysis. The data set is classed as functional.
In data set [22] the test system is Mus musculus. Put plainly: Ex-vivo inhibition of PrCP in heat inactivated 100% plasma of C57 mouse assessed as target engagement at 100 mg/kg, po after 20 hrs calculated as [cmpd]plasma/([cmpd]plasma + Ki (heat inactivated plasma))x100. The class given is functional.
For data set [23], the system named is Mus musculus. Put plainly: Ex-vivo inhibition of PrCP in heat inactivated 100% plasma of C57 mouse assessed as target engagement at 10 mg/kg, po after 20 hrs calculated as [cmpd]plasma/([cmpd]plasma + Ki (heat inactivated plasma))x100. The class given is functional.
A short description of data set [24]: Apparent permeability across pig LLC-PK1 cells at 1 uM. The class given is ADME, cell-based, Sus scrofa.
Data set [25] concerns Mus musculus. Put plainly: Plasma shift, ratio of Ki for PrCP in heat inactivated 100% plasma of po dosed mouse to Ki for po dosed mouse PrCP in the absence of plasma. The data set is classed as functional.
A short description of data set [26]: Apparent permeability across pig LLC-PK1 cells at 5 uM. The data set is classed as ADME, cell-based, Sus scrofa.
Data set [27] in a line: Ratio of apparent permeability from basolateral to apical side over apical to basolateral side in […] LLC cells expressing human MDR1 at 5 uM. The data set is classed as ADME, cell-based.
Data set [28] can be described thus: Ratio of apparent permeability from basolateral to apical side over apical to basolateral side in […] LLC cells expressing […] MDR1a at 5 uM. The data set is classed as ADME, cell-based.

Consider `CC(C)(C)N1C[C@@H](C(=O)N2CCC(c3ccnn3-c3ccc(F)c(Cl)c3)CC2)[C@H](c2ccc(F)cc2F)C1`, for which the IC50 in data set [1] came to 0.3 nM. Further, the fraction unbound in data set [2] came to 0.18; in data set [3], 0.16. Besides, the remaining at 0.5 h in data set [4] was found to be 4%; in data set [5], 3%. Besides, in [6], the clearance turned out to be 121 mL/min/kg. For the same compound, the Vd in data set [7] was found to be 22 L/kg. Further, in data set [8], the half-life was 3.1 h. The AUC/dose in the data set with Mus musculus [9] worked out at 0.05 µM·kg·h/mg. This compound yielded a bioavailability in data set [10] of 18%. Further, the Ki was 0.5 nM at Mus musculus [11], 0.7 nM at Mus musculus [12] and 1.4 nM at Mus musculus [13]. Besides, the concentration at 20 h in data set [14] is 1800 nM; in [15], 196 nM; in data set [16], 801 nM; in [17], 21 nM. In addition, the Kp at 20 h in [18] was determined as 0.46; in data set [19] it was 0.11. In addition, the inhibition in vivo at 100 mg/kg with Mus musculus [20] and in the data set with Mus musculus [22] was 99.9% each time. In addition, the results for the inhibition in vivo at 10 mg/kg in the data set on Mus musculus [21] and with Mus musculus [23] were 99.5% and 99.3%, respectively. For the same compound, the Papp at 1 µM in [24] was determined as 28.8 ×10⁻⁶ cm/s.
Consider `C[C@@H](c1ccc(-c2ccccc2)cc1)[C@H](NC(=O)C(C)(C)N)C(=O)N1CCC[C@H]1c1nc2cc(Cl)c(Cl)cc2[nH]1`, for which the figures for the Ki on Mus musculus [11], at Mus musculus [12] and on Mus musculus [13] were 0.7 nM, 4.6 nM and 16.3 nM, respectively. In addition, the “Ratio Ki” value in the data set with Mus musculus [25] worked out at 23.3. Moreover, the results for the concentration at 20 h in data set [14] and in [16] were 3120 nM and 757 nM, respectively. Besides, the Kp at 20 h in data set [18] was found to be 0.24. In addition, the values for the inhibition in vivo at 100 mg/kg in the data set with Mus musculus [20] and in the data set with Mus musculus [22] were 97.2% and 99.5%, respectively. Also, the Papp at 5 µM in [26] was found to be 2.3 ×10⁻⁶ cm/s. Besides, the Ratio was 8 in data set [27] and 4.2 in data set [28].

As usually defined, the IC50 is the concentration that gives 50% inhibition. Usually fraction unbound stands for the share of the substance not bound to proteins or other matrix. What is called half-life is the time in which the quantity being followed falls by half. Low values mean fast loss, high ones slow loss. Broadly, the bioavailability is the share of a dose that reaches the circulation, judged against a reference dose that is usually intravenous. Lower therefore signals little systemic uptake. A word on the inhibition in vivo: it is the percentage by which the read-out fell short of the control. For orientation: Papp means a coefficient for how fast a substance crosses the barrier.
